What was measured:
A549 (Homo sapiens) = assay: Cytotoxicity against human A549 cells after 72 hrs by MTT assay; conditions: A549, 72 h
SMMC-7721 = assay: Cytotoxicity against human SMMC7721 cells after 72 hrs by MTT assay; conditions: SMMC-7721, 72 h

Compound | IC50 (A549 (Homo sapiens)) | IC50 (SMMC-7721)
CCOC(=O)c1sc(-c2nc3ccccc3n2C)nc1C | > 20 µM | 13.9 µM
CCOC(=O)c1sc(-c2nc3ccccc3n2CC)nc1C | > 20 µM | 9.85 µM
CCOC(=O)c1sc(-c2nc3ccccc3n2C(C)C)nc1C | > 20 µM | > 20 µM
CCOC(=O)c1sc(-c2nc3ccccc3n2Cc2ccccc2)nc1C | > 20 µM | 2.78 µM
CCOC(=O)c1csc(-c2nc3ccccc3n2C)n1 | > 20 µM | 16.5 µM
CCOC(=O)c1csc(-c2nc3ccccc3n2Cc2ccccc2)n1 | > 20 µM | 13 µM
CCOC(=O)c1csc(-c2nc3ccccc3n2CC)n1 | > 20 µM | > 20 µM
CCOC(=O)Cc1csc(-c2nc3ccccc3n2C)n1 | > 20 µM | > 20 µM
Cc1nc(-c2nc3ccccc3n2Cc2ccccc2)sc1C(=O)O | > 20 µM | 15.3 µM
Cc1nc(-c2nc3ccccc3n2Cc2ccccc2)sc1C(=O)NC(C)C | 6.64 µM | 6.9 µM
CCN(CC)CCNC(=O)c1sc(-c2nc3ccccc3n2Cc2ccccc2)nc1C | 2.43 µM | 1.14 µM
Cc1nc(-c2nc3ccccc3n2Cc2ccccc2)sc1C(=O)Nc1ccccc1 | 3.96 µM | 3.7 µM
Cc1nc(-c2nc3ccccc3n2Cc2ccccc2)sc1C(=O)NC1CCCCC1 | 5.23 µM | 12.4 µM
Cc1nc(-c2nc3ccccc3n2Cc2ccccc2)sc1C(=O)N1CCCCC1 | > 20 µM | > 20 µM
Cc1nc(-c2nc3ccccc3n2Cc2ccccc2)sc1C(=O)N1CCOCC1 | > 20 µM | > 20 µM
Cc1nc(-c2nc3ccccc3n2Cc2ccccc2)sc1C(=O)N1CCN(C)CC1 | > 20 µM | 20 µM
CC(=O)O[C@H]1C(=O)[C@@]2(C)[C@H]([C@H](OC(=O)c3ccccc3)[C@]3(O)C[C@H](OC(=O)[C@H](O)[C@@H](NC(=O)c4ccccc4)c4ccccc4)C(C)=C1C3(C)C)[C@]1(OC(C)=O)CO[C@@H]1C[C@@H]2O [PACLITAXEL] | – | 1.42 µM

Source: ChEMBL document CHEMBL1649386, “Synthesis and in vitro cytotoxic evaluation of some thiazolylbenzimidazole derivatives” (Eur J Med Chem, 2011)
